Assay results taken from patent publication US8778973B2, “Alkene oxindole derivatives” (Hoffmann-La Roche Inc., priority 2009, dated 2014).
pEC50: −log10 of the molar value.

The compounds below were run on Recombinant human AMPK proteins (α1β1γ1, α2β1γ1, α1(1-335), α1(1-394) or α2(1-394)) (assay: Scintillation Proximity Assay (SPA) of AMPK activation). Details: activator concentration for 50% of maximal enzyme activity; 50 nM recombinant AMPK, 2 μM ATP, 30° C., 2 hr.
Format: biochemical
Description: Recombinant human AMPK α1β1γ1, α2β1γ1 or AMPK α subunit truncations α1(1-335), α1(1-394) and α2(1-394) were constructed, expressed and purified as described previously (Pang, T., Zhang, Z. S., Gu, M., Qiu, B. Y., Yu, L. F., Cao, P. R., Shao, W., Su, M. B., Li, J. Y., Nan, F. J., and Li, J. (2008)). Rat liver AMPK heterotrimer enzyme was obtained from Upstate (Billerica, Mass., U.S.A.).
Scintillation Proximity Assay
Before the Scintillation Proximity Assay (SPA) assay, 200 nM recombinant AMPK proteins (α1β1γ1, α2β1γ1, α1(1-335), α1(1-394) or α2(1-394)) were fully phosphorylated as described previously (Pang et al., 2008). SPA reactions were performed in 96-well plates at a final volume of 501 containing 20 mM Tris-HCl pH 7.5, 5 mM MgCl2, 1 mM DTT, 2 μM biotin-SAMS, 2 μM ATP, 0.2 μCi/well [γ-^33P]ATP, and various amount of activator. Reactions were initiated by the addition of 50 nM recombinant AMPK proteins to the reaction solutions and incubated at 30° C. for 2 hr. After that, reactions were terminated by the addition of 401 stop solution containing 80 μg streptavidin-coated SPA beads per well, 50 mM EDTA, 0.1% Triton X-100 in PBS, pH 7.5 and incubated for 1 hr. Finally, a 160 ul suspension solution containing 2.4 M CsCl, 50 mM EDTA, and 0.1% Triton X-100 in PBS (pH 7.5) was added to the reaction solution to suspend SPA beads completely. SPA signals were determined with a Wallac MicroBeta plate counter (PerkinElmer) 30 min later for calculation of the amount of product formed. The amount of products formed in 2 hr was plotted against activator concentrations to determine the effective concentration of the activator (EC50) required for 50% of maximal enzyme activity.
Compounds as described above have EC50 values between 0.5 uM and 50 uM, preferred compounds have EC50 values between 0.5 uM and 10 uM, particularly preferred compounds have EC50 values between 0.5 uM and 1 uM.

Row | pEC50 | SMILES
1 | 5.66 | O=C(O)c1ccc(CN2C(=O)/C(=C(\c3ccccc3)c3ccc(Cl)cc3)c3ccccc32)cc1 [Example 57, 4-{3-[1-(4-Chloro-phenyl)-1-phenyl-meth-(E)-ylidene]-2-oxo-2,3-dihydro-indol-1-ylmethyl}-benzoic acid]
2 | 5.31 | COc1ccc2c(c1)/C(=C(/c1ccccc1)c1ccc(Cl)cc1)C(=O)N2Cc1cccc(C(=O)O)c1 [Example 58, 3-{3-[1-(4-Chloro-phenyl)-1-phenyl-meth-(E)-ylidene]-5-methoxy-2-oxo-2,3-dihydro-indol-1-ylmethyl}-benzoic acid]
3 | 5.28 | O=C(O)c1ccc(CN2C(=O)/C(=C(\c3ccccc3)c3ccc(Cl)cc3)c3ccccc32)nc1 [Example 59, 6-{3-[1-(4-Chloro-phenyl)-1-phenyl-meth-(E)-ylidene]-2-oxo-2,3-dihydro-indol-1-ylmethyl}-nicotinic acid]
4 | 5.91 | O=C(O)c1cccc(CN2C(=O)/C(=C(\c3ccccc3)c3ccc(Cl)cc3)c3c(F)cccc32)c1 [Example 60, 3-{3-[1-(4-Chloro-phenyl)-1-phenyl-meth-(E)-ylidene]-4-fluoro-2-oxo-2,3-dihydro-indol-1-ylmethyl}-benzoic acid]
5 | 5.31 | O=C(O)c1cccc(CN2C(=O)/C(=C(\c3ccccc3)c3ccc(Cl)cc3)c3ccc(F)cc32)c1 [Example 61, 3-{3-[1-(4-Chloro-phenyl)-1-phenyl-meth-(E)-ylidene]-6-fluoro-2-oxo-2,3-dihydro-indol-1-ylmethyl}-benzoic acid]
6 | 5.63 | CSc1ccccc1/C(=C1/C(=O)N(Cc2cccc(C(=O)O)c2)c2ccccc21)c1ccccc1 [Example 62, 3-{3-[1-(2-Methylsulfanyl-phenyl)-1-phenyl-meth-(E)-ylidene]-2-oxo-2,3-dihydro-indol-1-ylmethyl}-benzoic acid]
7 | 5.49 | O=C(O)c1cccc(CN2C(=O)/C(=C(\c3ccccc3)c3cccnc3)c3ccccc32)c1 [Example 63, 3-{2-Oxo-3-[1-phenyl-1-pyridin-3-yl-meth-(E)-ylidene]-2,3-dihydro-indol-1-ylmethyl}-benzoic acid]
8 | 5.18 | O=C(O)c1cccc(CN2C(=O)/C(=C(\c3ccccc3)c3cc(C(F)(F)F)ccc3Cl)c3ccccc32)c1 [Example 64, 3-{3-[1-(2-Chloro-5-trifluoromethyl-phenyl)-1-phenyl-meth-(E)-ylidene]-2-oxo-2,3-dihydro-indol-1-ylmethyl}-benzoic acid]
9 | 5.47 | O=C(O)c1cccc(CN2C(=O)/C(=C(\c3ccccc3)c3cc(C(F)(F)F)cc(C(F)(F)F)c3)c3ccccc32)c1 [Example 65, 3-{3-[1-(3,5-Bis-trifluoromethyl-phenyl)-1-phenyl-meth-(E)-ylidene]-2-oxo-2,3-dihydro-indol-1-ylmethyl}-benzoic acid]
10 | 5.61 | O=C(O)c1cccc(CN2C(=O)/C(=C(\c3ccccc3)c3cccc(C(F)(F)F)c3)c3ccccc32)c1 [Example 66, 3-{2-Oxo-3-[1-phenyl-1-(3-trifluoromethyl-phenyl)-meth-(E)-ylidene]-2,3-dihydro-indol-1-ylmethyl}-benzoic acid]
11 | 5.90 | NS(=O)(=O)c1ccc(/C(=C2/C(=O)N(Cc3cccc(C(=O)O)c3)c3ccccc32)c2ccccc2)cc1 [Example 67, 3-{2-Oxo-3-[1-phenyl-1-(4-sulfamoyl-phenyl)-meth-(E)-ylidene]-2,3-dihydro-indol-1-ylmethyl}-benzoic acid]
12 | 5.67 | O=C(O)c1cccc(CN2C(=O)/C(=C(/c3ccccc3)c3ccc(Cl)cc3)c3ccccc32)c1 [Example 68, 3-{3-[1-(4-Chloro-phenyl)-1-phenyl-meth-(Z)-ylidene]-2-oxo-2,3-dihydro-indol-1-ylmethyl}-benzoic acid]
13 | 5.66 | O=C(O)c1cccc(CN2C(=O)/C(=C(\c3ccc(Cl)cc3)c3ccc(C(F)(F)F)cc3)c3ccccc32)c1 [Example 69, 3-{3-[1-(4-Chloro-phenyl)-1-(4-trifluoromethyl-phenyl)-meth-(Z)-ylidene]-2-oxo-2,3-dihydro-indol-1-ylmethyl}-benzoic acid]
14 | 5.30 | O=C(O)COc1ccc(CN2C(=O)/C(=C(\c3ccccc3)c3ccc(Cl)cc3)c3ccccc32)cc1 [Example 70, (4-{3-[1-(4-Chloro-phenyl)-1-phenyl-meth-(E)-ylidene]-2-oxo-2,3-dihydro-indol-1-ylmethyl}-phenoxy)-acetic acid]
15 | 5.40 | CC(C)c1ccc(/C(=C2/C(=O)N(Cc3cccc(C(=O)O)c3)c3ccccc32)c2ccccc2)cc1 [Example 71, 3-{3-[1-(4-Isopropyl-phenyl)-1-phenyl-meth-(E)-ylidene]-2-oxo-2,3-dihydro-indol-1-ylmethyl}-benzoic acid]
16 | 5.48 | O=C(O)c1cccc(CN2C(=O)/C(=C(\c3ccccc3)c3ccc(F)c(F)c3)c3ccccc32)c1 [Example 72, 3-{3-[1-(3,4-Difluoro-phenyl)-1-phenyl-meth-(E)-ylidene]-2-oxo-2,3-dihydro-indol-1-ylmethyl}-benzoic acid]
17 | 5.29 | O=C(O)c1cccc(CN2C(=O)/C(=C(\c3ccccc3)c3ccc(Cl)cc3)c3cccc(F)c32)c1 [Example 73, 3-{3-[1-(4-Chloro-phenyl)-1-phenyl-meth-(E)-ylidene]-7-fluoro-2-oxo-2,3-dihydro-indol-1-ylmethyl}-benzoic acid]
18 | 5.50 | O=C(O)c1cccc(CN2C(=O)/C(=C(\c3ccccc3)c3ccc(Cl)cc3)c3cc(Cl)ccc32)c1 [Example 74, 3-{5-Chloro-3-[1-(4-chloro-phenyl)-1-phenyl-meth-(E)-ylidene]-2-oxo-2,3-dihydro-indol-1-ylmethyl}-benzoic acid]
19 | 5.74 | O=C(O)c1cccc(CN2C(=O)/C(=C(\c3ccccc3)c3ccccc3Cl)c3ccccc32)c1 [Example 75, 3-{3-[1-(2-Chloro-phenyl)-1-phenyl-meth-(E)-ylidene]-2-oxo-2,3-dihydro-indol-1-ylmethyl}-benzoic acid]
20 | 5.29 | O=C(O)c1csc(CN2C(=O)/C(=C(\c3ccccc3)c3ccc(Cl)cc3)c3ccccc32)n1 [Example 76, 2-{3-[1-(4-Chloro-phenyl)-1-phenyl-meth-(E)-ylidene]-2-oxo-2,3-dihydro-indol-1-ylmethyl}-thiazole-4-carboxylic acid]
21 | 5.59 | COC(=O)c1cccc(CN2C(=O)/C(=C(/CCC(C)C)c3ccccc3)c3ccccc32)c1 [Example 77, 3-[3-(4-Methyl-1-phenyl-pent-(Z)-ylidene)-2-oxo-2,3-dihydro-indol-1-ylmethyl]-benzoic acid methyl ester]
22 | 5.80 | COC(=O)c1cccc(CN2C(=O)/C(=C(/CC(C)(C)C)c3ccccc3)c3ccccc32)c1 [Example 78, 3-{3-[3,3-Dimethyl-1-phenyl-but-(Z)-ylidene]-2-oxo-2,3-dihydro-indol-1-ylmethyl}-benzoic acid methyl ester]
23 | 5.77 | COC(=O)c1cccc(CN2C(=O)/C(=C(/Cc3ccc(Cl)cc3)c3ccccc3)c3ccccc32)c1 [Example 79, 3-{3-[2-(4-Chloro-phenyl)-1-phenyl-eth-(Z)-ylidene]-2-oxo-2,3-dihydro-indol-1-ylmethyl}-benzoic acid methyl ester]
24 | 5.24 | COC(=O)c1cccc(CN2C(=O)/C(=C(\CC(C)(C)C)c3ccccc3)c3ccccc32)c1 [Example 80, 3-{3-[3,3-Dimethyl-1-phenyl-but-(E)-ylidene]-2-oxo-2,3-dihydro-indol-1-ylmethyl}-benzoic acid methyl ester]
25 | 5.32 | CC(C)CC/C(=C1/C(=O)N(Cc2cccc(C(=O)O)c2)c2ccccc21)c1ccccc1 [Example 81, 3-[3-(4-Methyl-1-phenyl-pent-(Z)-ylidene)-2-oxo-2,3-dihydro-indol-1-ylmethyl]-benzoic acid]
26 | 5.80 | CC(C)/C(Cc1ccc(Cl)cc1)=C1\C(=O)N(Cc2cccc(C(=O)O)c2)c2ccccc21 [Example 82, 3-{3-[1-(4-Chloro-benzyl)-2-methyl-prop-(Z)-ylidene]-2-oxo-2,3-dihydro-indol-1-ylmethyl}-benzoic acid]
27 | 5.31 | COC(=O)c1cccc(CN2C(=O)/C(=C(/c3ccccc3)C(C)C)c3ccccc32)c1 [Example 85, 3-{3-[2-Methyl-1-phenyl-prop-(E)-ylidene]-2-oxo-2,3-dihydro-indol-1-ylmethyl}-benzoic acid methyl ester]
28 | 5.10 | COC(=O)c1cccc(CN2C(=O)/C(=C(/c3ccc(C(C)=O)cc3)C(C)C)c3ccccc32)c1 [Example 86, 3-{3-[1-(4-Acetyl-phenyl)-2-methyl-prop-(E)-ylidene]-2-oxo-2,3-dihydro-indol-1-ylmethyl}-benzoic acid methyl ester]
